From publication PMC11555678, “Improved Broad Spectrum Antifungal Drug Synergies with Cryptomycin, a Cdc50-Inspired Antifungal Peptide” (ACS Infectious Diseases, 2024)
Converted amounts (≈) assume the structure as drawn. Like-named read-outs stand apart in the source and are kept apart here. Square brackets hold non-standard residues; d marks the D form. Peptide text beside a SMILES is read from it. * marks the point of attachment. Myristoyl = CCCCCCCCCCCCCC(=O)*; Orn = NCCC[C@H](N)C(=O)O

Columns and labels:
[1] = tested on: Cn MRL862; type: cell-based, Cryptococcus neoformans; conditions: RPMI1640, 37 °C, 48 h
Description: (§1) All microdilution assays with fungi were carried out in accordance with CLSI protocols from M27 for yeasts and M38 for filamentous fungi, respectively, unless otherwise specified.[64],[65] Briefly, 96-well plates were charged with RPMI1640 media, with operating volume in the first column, 200 μL, and half operating volume, 100 μL, in the remaining wells. Drug stock solution in DMSO was aliquoted into the first well in each row. Half of the volume in the dosed well was serially diluted 2-fold until column 11. Column 11 was used as the negative growth control, and column 12 was used as the positive growth control. ON yeast cultures in YPD were washed twice in DD-H2O, resuspended in PBS, and adjusted to 5000 cfu/mL in RPMI. The 96-well plate was inoculated with 100 μL aliquots of cell suspension per well. Plates were incubated at 37 °C for 2 days.
(§2) To assess drug synergy, the initial media charged to the plate contained the peptide at twice the final operating concentration; the remaining processing steps were identical to the MIC experiment. Upon addition of 100 μL of inoculant, the final operating concentration was achieved. Control MIC plates were prepared alongside drug synergy plates to account for the day-to-day variability in any individual MIC. FIC index is computed using eq 1. All MIC assays and drug synergy assays were completed with two technical replicates per 96-well plate and a minimum of two biological replicates per drug combination. If a difference in MIC between the two technical replicates on the plate were observed, only the higher concentration was reported as the MIC to reduce the possibility of type 1 error (false positive) [drawing 1] 1

[2] = tested on: C. auris B11245; assay: microbe, parasite or virus in culture; type: cell-based, Candida auris
Description: as §1

[3] = tested on: C. auris B11245; type: cell-based, Candida auris; conditions: RPMI1640, 37 °C, 48 h, CAS: paradoxical growth; for MIC of antifungal in combination with KKOO: MIC = <20% growth; for MIC of antifungal in combination with KKOO-NH2: MIC = well with <20% growth
Description: as §1, §2

[4] = tested on: A. fumigatus AF293; assay: microbe, parasite or virus in culture; type: cell-based, Aspergillus fumigatus; conditions: AF293, 48 h
Description: as §1

[5] = tested on: C. glabrata 2001; assay: microbe, parasite or virus in culture; type: cell-based, Candida glabrata
Description: as §1

[6] = tested on: C. glabrata FKS1-S629P; assay: microbe, parasite or virus in culture; type: cell-based, Candida glabrata; conditions: 48 h
Description: as §1

[7] = tested on: C. glabrata FKS2-S663P; assay: microbe, parasite or virus in culture; type: cell-based, Candida glabrata; conditions: 48 h
Description: as §1

[8] = tested on: Cn crm1Δ; assay: microbe, parasite or virus in culture; type: cell-based, Cryptococcus neoformans; conditions: YPD + 0 mM Ca2+, 37 °C, 48 h
Description: (§3) Previous studies have shown that modifying microbiological media with salts such as CaCl2 can have a drastic effect on the growth of fungi and their responses to antifungals.[19],[35] In the case of CaCl2, the divalent cation, Ca^2+, is involved in fungal cell stress response. To understand how the peptide activity may involve calcium and stress response, the MICs of KKOO, KKOO-NH2, FLC, and CAS were assessed as a function of the calcium concentration in liquid YPD media. It was observed that calcium enrichment completely desensitized the wild-type strain to KKOO and KKOO-NH2, Tables 7 and 8, respectively. Effects of calcium enrichment on the susceptibility of Cryptococcus to CAS similar to literature values were recorded, Supporting Information, Table S7.[35]
as §1

[9] = tested on: Cn apt1Δ; assay: microbe, parasite or virus in culture; type: cell-based, Cryptococcus neoformans; conditions: for MIC: 37 °C, 48 h
Description: as §3, §1

[10] = tested on: Cn Crm1-oe; assay: microbe, parasite or virus in culture; type: cell-based, Cryptococcus neoformans; conditions: YPD + 0 mM Ca2+, 37 °C, 48 h
Description: as §3, §1

[11] = tested on: Cn cdc50Δ; assay: microbe, parasite or virus in culture; type: cell-based, Cryptococcus neoformans; conditions: for MIC: 37 °C, 48 h
Description: as §3
(§4) In order to control for the effects of enriching YPD with a divalent cation, MICs and ROS production were also measured as a function of the MgCl2 supplement at the same millimolar concentrations of cation as in the CaCl2-modified experiments. […] No peptide susceptibility changes were observed against Cn cdc50Δ in magnesium-enriched media, Table S9. ROS production in H99 induced by peptide exposure was inhibited after 30 min of treatment in the magnesium-enriched condition, similar to the levels observed in the calcium-enriched media at 16 μg/mL KKOO-NH2, Figure S1. […] The link between peptide activity and calcium homeostasis may be vital in understanding precisely how the peptide kills fungal cells and requires more research to elucidate.
as §1

[12] = tested on: Cn H99; assay: microbe, parasite or virus in culture; type: cell-based, Cryptococcus neoformans; conditions: for MIC: 37 °C, 48 h
Description: as §3, §4, §1

[13] = compound alone, RPMI1640, 37 °C

CCC(C)n1ncn(-c2ccc(N3CCN(c4ccc(OCC5COC(Cn6cncn6)(c6ccc(Cl)cc6Cl)O5)cc4)CC3)cc2)c1=O (stereo not drawn) [ITR, itraconazole]
MIC of antifungal in combination with KKOO ([1]; +0 μg/mL KKOO (control)): 0.062 mg/L
MIC of antifungal in combination with KKOO-NH2 ([1]; +0 μg/mL KKOO-NH2 (control)): 0.062 mg/L
MIC of antifungal in combination with KKOO-NH2 ([1]; +1 μg/mL KKOO-NH2): 0.062 mg/L
MIC of antifungal in combination with KKOO ([1]; +1 μg/mL KKOO): 0.031 mg/L
MIC of antifungal in combination with KKOO-NH2 ([1]; +2 μg/mL KKOO-NH2): 0.016 mg/L
MIC of antifungal in combination with KKOO ([1]; +2 μg/mL KKOO): 0.016 mg/L
MIC of antifungal in combination with KKOO-NH2 ([1]; +4 μg/mL KKOO-NH2): 0.004 mg/L
MIC of antifungal in combination with KKOO ([1]; +4 μg/mL KKOO): 0.556 mg/L
MIC ([2]; Candidozyma auris, B11245, compound alone, RPMI1640, 37 °C, 48 h, * = paradoxical growth observed (CAS), read-out: MIC): 0.5 mg/L (≈ 0.709 µM)
MIC of antifungal in combination with KKOO ([3]; +0 μg/mL KKOO (control)): 0.5 mg/L
MIC of antifungal in combination with KKOO-NH2 ([3]; +0 μg/mL KKOO-NH2 (control)): 0.5 mg/L
MIC of antifungal in combination with KKOO-NH2 ([3]; +1 μg/mL KKOO-NH2): 0.125 mg/L
MIC of antifungal in combination with KKOO ([3]; +1 μg/mL KKOO): 0.25 mg/L
MIC of antifungal in combination with KKOO-NH2 ([3]; +2 μg/mL KKOO-NH2): 0.062 mg/L
MIC of antifungal in combination with KKOO ([3]; +2 μg/mL KKOO): 0.062 mg/L
MIC of antifungal in combination with KKOO-NH2 ([3]; +4 μg/mL KKOO-NH2): 0.016 mg/L
MIC of antifungal in combination with KKOO ([3]; +4 μg/mL KKOO): 0.031 mg/L
MIC ([4]; Aspergillus fumigatus): 0.125 mg/L (≈ 0.177 µM)
MIC ([5]; Nakaseomyces glabratus, 2001, compound alone, RPMI1640, 37 °C, 48 h, read-out: MIC): 0.5 mg/L (≈ 0.709 µM)
MIC ([6]; Nakaseomyces glabratus, FKS1S629P): 0.125 mg/L (≈ 0.177 µM)
MIC ([7]; Nakaseomyces glabratus, FKS2S663P): 0.125 mg/L (≈ 0.177 µM)

CCCCCCCCCCCCCC(=O)N[C@@H](Cc1c[nH]c2ccccc12)C(=O)NCC(=O)NCC(=O)N[C@H](C(=O)N[C@@H](CCCN)C(=O)N[C@@H](CCCN)C(=O)N[C@@H](CC(N)=O)C(=O)N[C@@H](Cc1ccc(O)cc1)C(=O)N[C@@H](C)C(N)=O)[C@@H](C)CC [KKOO-NH2] (Myristoyl-WGGI[Orn][Orn]NYA-NH2)
MIC ([2]; B11245, 48 h): 16 mg/L (≈ 13.1 µM)
MIC [8]: 4 mg/L
MIC ([9]; YPD + 0 mM Ca2+): 4 mg/L
increase of MIC ([9]; YPD +0 to +20 mM CaCl2): 32 fold
MIC ([9]; YPD + 2.5 mM Ca2+): 16 mg/L
MIC ([9]; YPD + 5 mM Ca2+): 64 mg/L
MIC ([9]; YPD + 10 mM Ca2+): 64 mg/L
MIC [10]: 4 mg/L
MIC [4]: 32 mg/L (≈ 26.3 µM)
MIC ([5]; 2001, 48 h): 8 mg/L (≈ 6.57 µM)
MIC (SAR screen peptides) ([5]; Table S1, unit and conditions not given (MICs elsewhere in μg/mL)): 8
MIC [6, 13]: 8 mg/L (≈ 6.57 µM)
MIC [7, 13]: 8 mg/L (≈ 6.57 µM)
MIC ([11]; YPD + 0 mM Ca2+): 2 mg/L
MIC ([11]; YPD + 0 mM Mg2+, unit inferred): 4 mg/L
increase of MIC (largest deviation) ([11]; YPD +0 to +5 mM CaCl2): 4 fold
MIC ([11]; YPD + 2.5 mM Ca2+): 4 mg/L
MIC ([11]; YPD + 2.5 mM Mg2+, unit inferred): 4 mg/L
MIC ([11]; YPD + 5 mM Ca2+): 8 mg/L
MIC ([11]; YPD + 5 mM Mg2+, unit inferred): 4 mg/L
MIC ([11]; YPD + 10 mM Ca2+): 8 mg/L
MIC ([11]; YPD + 10 mM Mg2+, unit inferred): 4 mg/L
MIC ([11]; YPD + 20 mM Ca2+): 4 mg/L
MIC ([11]; YPD + 20 mM Mg2+, unit inferred): 4 mg/L
MIC ([12]; YPD + 0 mM Ca2+): 8 mg/L
MIC ([12]; YPD + 0 mM Mg2+): 8 mg/L
increase of MIC ([12]; YPD +0 to +2.5 mM CaCl2): 16 fold
increase of MIC ([12]; YPD +0 to +20 mM MgCl2): 4 fold
MIC ([12]; YPD + 2.5 mM Ca2+): 128 mg/L
MIC ([12]; YPD + 2.5 mM Mg2+): 8 mg/L
MIC ([12]; YPD + 5 mM Ca2+): >128 mg/L
MIC ([12]; YPD + 5 mM Mg2+): 16 mg/L
MIC ([12]; YPD + 10 mM Ca2+): >128 mg/L
MIC ([12]; YPD + 10 mM Mg2+): 16 mg/L
MIC ([12]; YPD + 20 mM Ca2+): >128 mg/L
MIC ([12]; YPD + 20 mM Mg2+): 32 mg/L
